Experimental data taken from patent US9938261B2, “Heterocyclic compounds and methods of use thereof” (AMBIT BIOSCIENCES CORPORATION, priority 2011, dated 2018).

Experiments:
FLT3 = target: T1, FLT3 (Homo sapiens, UniProt P36888); assay: Competition binding assay, FLT3 Kd; conditions: competition binding
T1 construct: made in house
T1 sequence (P36888 27-993): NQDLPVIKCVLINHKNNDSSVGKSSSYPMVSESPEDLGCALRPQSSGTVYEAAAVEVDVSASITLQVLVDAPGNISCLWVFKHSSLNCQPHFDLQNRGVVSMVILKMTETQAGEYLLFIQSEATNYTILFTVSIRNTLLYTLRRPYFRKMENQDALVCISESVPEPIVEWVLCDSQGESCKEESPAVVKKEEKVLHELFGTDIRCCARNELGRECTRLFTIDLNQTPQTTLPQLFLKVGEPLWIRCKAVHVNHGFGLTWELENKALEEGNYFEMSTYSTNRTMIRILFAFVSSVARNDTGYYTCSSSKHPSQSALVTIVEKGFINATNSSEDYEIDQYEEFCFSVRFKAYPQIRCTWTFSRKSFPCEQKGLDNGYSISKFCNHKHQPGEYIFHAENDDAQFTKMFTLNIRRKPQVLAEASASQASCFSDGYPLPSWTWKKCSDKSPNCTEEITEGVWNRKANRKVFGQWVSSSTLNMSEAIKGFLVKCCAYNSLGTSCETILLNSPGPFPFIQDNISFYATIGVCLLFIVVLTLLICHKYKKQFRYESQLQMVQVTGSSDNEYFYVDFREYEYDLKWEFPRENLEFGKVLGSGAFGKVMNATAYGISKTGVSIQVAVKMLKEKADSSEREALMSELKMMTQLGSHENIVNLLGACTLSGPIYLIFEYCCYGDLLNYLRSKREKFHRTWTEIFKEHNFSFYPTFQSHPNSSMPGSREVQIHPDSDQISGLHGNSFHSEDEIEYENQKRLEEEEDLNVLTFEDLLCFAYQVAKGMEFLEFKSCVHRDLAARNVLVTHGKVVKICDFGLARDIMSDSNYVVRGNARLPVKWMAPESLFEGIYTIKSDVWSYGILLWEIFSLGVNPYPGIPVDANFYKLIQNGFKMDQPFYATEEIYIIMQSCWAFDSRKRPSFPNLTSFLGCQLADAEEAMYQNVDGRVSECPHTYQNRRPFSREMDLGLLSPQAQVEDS
Outline: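 Compound displacement of kinase from bead-immobilized ligand is measured by qPCR after 1 h equilibration at room temperature. Kinases are T7 phage fusions or DNA-tagged HEK-293 products.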

M-NFS-60 cells = assay: M-NFS-60 cell proliferation assay (Alamar Blue); assay type: cell-based, mouse; conditions: Mus musculus; M-NFS-60 cell proliferation; read-out: CSF1R M-NFS-60 CTB:IC50
Outline: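 Alamar Blue reduction (3 h; 560/590 nm) measured viability after 72 h, 37 °C treatment with nine half-log compound concentrations at 0.5% DMSO. Cells: M-CSF-dependent (20 ng/mL) murine M-NFS-60 in RPMI plus 10% FBS. IC50s, averaged from duplicates, reflect half-maximal inhibition of proliferation relative to control.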

`O[C@@H]1[C@H](O)CCC[C@H]1Nc1nc2ccc(Cn3cnc4cc(-n5cncn5)cnc43)cc2s1` [Example 234, (1R,2S,3R)-3-((6-((6-(1H-1,2,4-Triazol-1-yl)-3H-imidazo[4,5-b]pyridin-3-yl)methyl)benzo[d]thiazol-2-yl)amino)cyclohexane-1,2-diol] was tested, and the Kd (FLT3) was 200 to 1000 nM and the IC50 (M-NFS-60 cells) was 50 to 400 nM.
Work on `O[C@@H]1[C@H](O)CCC[C@H]1Nc1nc2ccc(Cn3cnc4cc(N5CCOCC5)ccc43)cc2s1` [Example 235, (1R,2S,3R)-3-((6-((5-morpholino-1H-benzo[d]imidazol-1-yl)methyl)benzo[d]thiazol-2-yl)amino)cyclohexane-1,2-diol] yielded a Kd (FLT3) of 200 to 1000 nM and an IC50 (M-NFS-60 cells) of 50 to 400 nM.
For `Cn1nnc(-c2ccc3c(c2)ncn3Cc2ccc3nc(N[C@@H]4CCC[C@@H](O)[C@H]4O)sc3c2)n1` [Example 236, (1R,2S,3R)-3-((6-((5-(2-methyl-2H-tetrazol-5-yl)-1H-benzo[d]imidazol-1-yl)methyl)benzo[d]thiazol-2-yl)amino)cyclohexane-1,2-diol], the Kd (FLT3) was 200 to 1000 nM and the IC50 (M-NFS-60 cells) was 50 to 400 nM.
